US7919458B2, “Method of inhibiting prostate cancer cell proliferation” (Scott, Kieran, Francis, priority 2002, dated 2011)
Non-standard residues stand in square brackets, D forms with d. 2Nal = N[C@@H](Cc1ccc2ccccc2c1)C(=O)O

T1: human sPLA2-IIA (Homo sapiens, UniProt P14555)
T1 sequence (P14555 21-144): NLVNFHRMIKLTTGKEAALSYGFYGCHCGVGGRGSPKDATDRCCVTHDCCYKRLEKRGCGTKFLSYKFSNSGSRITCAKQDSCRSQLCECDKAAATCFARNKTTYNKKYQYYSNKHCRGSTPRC

B1: sPLA2-IIA: human recombinant sPLA2-IIA purified from Chinese hamster ovary cell conditioned media (protein, listed as Homo sapiens)
chain: MKTLLLLAVIMIFGLLQAHGNLVNFHRMIKLTTGKEAALSYGFYGCHCGVGGRGSPKDATDRCCVTHDCCYKRLEKRGCGTKFLSYKFSNSGSRITCAKQDSCRSQLCECDKAAATCFARNKTTYNKKYQYYSNKHCRGSTPRC

Experiments:
[1] = system: DU145; assay: MTS cell growth assay, unstimulated DU145 cells; type: cell-based, human; conditions: 1-100 nM, 72 hours, sPLA2-IIA mRNA undetectable
Description: (§1) FIG. 4. Effect of sPLA2-IIA inhibition on unstimulated prostate cancer cells. (A) The endogenous expression of sPLA2-IIA mRNA was evaluated by RT-PCR in three unstimulated prostate cancer cell lines (LNCaP, DU145 and PC-3) grown in RPMI containing 5% FCS. HPRT was used to as a positive control for RNA integrity and loading. (B) Cells were grown in RPMI with 5% FCS were then treated for 72 hours in the presence and absence of the sPLA2-IIA inhibitor c(2Nap)LS(2Nap)R and cell number determined by MTS assay as described in Materials and Methods. Data are mean±SD of quadruplicate determinations expressed as percentages relative to untreated control cells (100%). LNCaP, closed bars, OD495 untreated cells 0.50±0.03; DU145, open bars, OD495 untreated cells 0.73±0.05; PC-3, hatched bars, OD495 untreated cells, 0.66±0.01. *p<0.05 vs untreated control by one-way ANOVA.
Cell Lines and Culture. The LNCaP, DU145 and PC3 cell lines were purchased from American Type Culture Collection (Rockville, Md.). […]
(§2) Cell growth assay. […] After treatment, the number of viable cells was determined using the MTS assay (CellTiter 96® AQueous Assay; Promega, Madison, Wis.). […] The absorbance at 490 nm was measured with an ELISA microplate reader. […]
To test the effect of blocking endogenous sPLA2-IIA on cell growth, we firstly determined the basal mRNA levels of sPLA2-IIA in 3 human prostate cancer cell lines. […]

[2] = biological target: T1, human sPLA2-IIA; conditions: previously published work (Tseng et al. 1996; Church et al. 2001); cited from earlier work
[3] = system: PC-3; assay: MTS cell growth assay, unstimulated PC-3 cells; type: cell-based, human; conditions: 72 hours; for Proliferation of unstimulated PC-3 cells: 1-100 nM, endogenous sPLA2-IIA; for Smallest effective dose, PC-3 proliferation: doses 1-100 nM
Description: as §1
(§3) Cell Lines and Culture. The LNCaP, DU145 and PC3 cell lines were purchased from American Type Culture Collection (Rockville, Md.). All cell cultures were maintained in RPMI 1640 supplemented with 5% FBS for LNCaP and 10% FBS for DU145 and PC3 at 37° C. in a humidified environment of 5% CO2. For experiments with addition of androgens, cells were cultured in RPMI 1640 without phenol red and supplemented with same concentration of charcoal stripped FBS. For experiments described in this article, we used cells between passage 30 and 45 for LNCaP, 65 and 80 for DU145 and 25 and 40 for PC3.
(§4) Cell growth assay. Cells were plated at 1×10^4 per well in 96-well plates with 0.1 ml of FBS-supplemented RPMI. After reaching 70-80% confluence (about 48 hours), the medium was changed to that containing various treatments for 3 days. After treatment, the number of viable cells was determined using the MTS assay (CellTiter 96® AQueous Assay; Promega, Madison, Wis.). In brief, 20 ul of MTS solution was added to each well and cells were incubated for 1 h. The absorbance at 490 nm was measured with an ELISA microplate reader. Each experiment was performed in quadruplicate and repeated at least three times.
(§5) To test the effect of blocking endogenous sPLA2-IIA on cell growth, we firstly determined the basal mRNA levels of sPLA2-IIA in 3 human prostate cancer cell lines. The androgen-independent cell lines PC-3 and DU145 cells were included in the study to also exclude a possible general toxicity of the inhibitors. mRNA encoding sPLA2-IIA was undetectable in DU-145 compared with LNCaP and PC-3 cells (FIG. 4A). We then tested the effect of individual inhibitors cFLSYR (SEQ ID NO: 6) and c(2Nap)LS(2Nap) R on cell growth over a range of doses (1-100 nM). […] The low but effective dosage and its specificity for cell lines containing endogenous sPLA2-IIA only, indicate that non-specific cell toxicity is not likely to explain the inhibitory effect.

[4] = system: LNCaP; assay: MTS cell growth assay, unstimulated LNCaP cells; type: cell-based, human; conditions: 72 hours; for Proliferation of unstimulated LNCaP cells: 1-100 nM, endogenous sPLA2-IIA; for Smallest effective dose, LNCaP proliferation: doses 1-100 nM
Description: as §1, §3, §4, §5

[5] = system: LNCaP cells; assay: Flow cytometric cell cycle analysis (propidium iodide) of LNCaP cells; type: cell-based, human
Description: (§6) FIG. 2. Effect of exogenous addition of sPLA2-IIA on prostate cell growth. LNCaP cells were grown in RPMI with 5% FCS and treated for 72 hours in media containing (A) increasing concentrations of sPLA2-IIA alone (closed bars) or increasing concentrations of the activity-dead sPLA2-IIA mutant H48Q. (B) a fixed concentration of sPLA2-IIA and increasing concentrations of the sPLA2-IIA inhibitor cFLSYR (SEQ ID NO: 6). Cell number relative to untreated control cells was determined by the MTS assay as described in Materials and Methods. Data are Mean±SD of quadruplicate determinations normalised to 100% for untreated cells. OD495 of unstimulated cells was 0.29±0.06 for sPLA2-IIA and 0.24±0.03 for the sPLA2-IIA mutant experiments in panel A and 0.24±0.03 for panel B. *p<0.05 vs untreated control by one-way ANOVA. Data are representative of three separate experiments. (C). LNCaP cells were grown as above and stimulated for 72 hours with sPLA2-IIA (1 nM) in the absence (dotted lines) and presence (solid lines) of the sPLA2-IIA inhibitor cFLSYR (SEQ ID NO: 6) (100 nM). Cells (1×10^6) were assayed by flow cytometry following treatment with propidium iodide as described in Materials and Methods. Statistical analysis was performed on 10,000 events per sample. Data are representative of three separate experiments.
Flow Cytometric Analysis. Cells were seeded in 25 ml flasks in conditions as described above. Following treatment, trypsinization and cell counting, LNCaP cells (1×10^6) were suspended in 1 mL PBS and incubated with 0.2 mL 0.4% Triton® X-100 for 5 min at R/T in the presence of 50 μL of propidium iodide solution (50 μg/mL) and 20 μL of ribonuclease (10 mg/mL). DNA content per cell was measured by flow cytometry using an FACScalibur® flow cytometer and CellQuest® software (Becton Dickinson, Franklin Lakes, N.J.). Statistical analysis was performed on 10,000 events per sample.
We next used flow cytometric analysis to determine how sPLA2-IIA affects the distribution of LNCaP cells in different phases of the cell cycle. […]

[6] = system: LNCaP cells; assay: MTS cell growth assay, inhibition of sPLA2-IIA-stimulated LNCaP proliferation; type: cell-based, human; conditions: fixed sPLA2-IIA (1 nM), 72 hours, increasing inhibitor concentrations
Description: as §6, with “LNCaP cells were grown as above and stimulated for 72 hours with sPLA2-IIA (1 nM) in the absence (dotted lines) and presence (solid lines) of the sPLA2-IIA inhibitor cFLSYR (SEQ ID NO: 6) (100 nM). Cells (1×10^6) were assayed by flow cytometry following treatment with propidium iodide as described in Materials and Methods. Statistical analysis was performed on 10,000 events per sample. Data are representative of three separate experiments.” left out
FIG. 3. […] Cell number was determined by the MTS assay as described in Materials and Methods. Data are mean±SD of quadruplicate determinations expressed as percentages relative to untreated control cells (100%) (open bar). […]
as §2

[7] = system: LNCaP cells; assay: MTS cell growth assay, exogenous sPLA2-IIA added to LNCaP cells; type: cell-based, human; conditions: 72 hours
Description: as §6, with “LNCaP cells were grown as above and stimulated for 72 hours with sPLA2-IIA (1 nM) in the absence (dotted lines) and presence (solid lines) of the sPLA2-IIA inhibitor cFLSYR (SEQ ID NO: 6) (100 nM). Cells (1×10^6) were assayed by flow cytometry following treatment with propidium iodide as described in Materials and Methods. Statistical analysis was performed on 10,000 events per sample. Data are representative of three separate experiments.” left out
as §2
To examine the biological relevance of sPLA2-IIA to prostate cancer cell growth, we treated LNCaP cells with increasing doses of human recombinant sPLA2-IIA and monitored cell growth. […]

Row | Molecule | Effect on unstimulated DU145 cell growth [1] | Inhibition of human sPLA2-IIA in in vitro activity assays [2] | Proliferation of unstimulated PC-3 cells [3] | Smallest effective dose, PC-3 proliferation [3] [nM] | Proliferation of unstimulated LNCaP cells [4] | Smallest effective dose, LNCaP proliferation [4] [nM] | Proportion of cells in G1 and G2 phase with sPLA2-IIA plus inhibitor ([5]; sPLA2-IIA 1 nM plus cFLSYR 100 nM, 72 hours) | Effect on sPLA2-IIA-stimulated LNCaP cell number/growth [6] | Lowest dose stimulating LNCaP cell growth ([7]; MTS assay) [nM] | Effect of exogenously added protein on LNCaP cell growth (MTS) ([7]; RPMI with 5% FCS, relative to untreated cells) | Proportion of LNCaP cells in G1 phase ([5]; sPLA2-IIA containing medium (1 nM), 72 hours, untreated 74%) [%] | Proportion of LNCaP cells in G2/M phase ([5]; sPLA2-IIA containing medium, in comparison to untreated cells)
1 | c(2NapA)LS(2NapA)R: cyclic peptide where F and Y are substituted with 2-naphthylalanine; sPLA2-IIA inhibitor (cyclo([2Nal]LS[2Nal]R); SMILES CC(C)C[C@@H]1NC(=O)[C@H](Cc2ccc3ccccc3c2)NC(=O)[C@H](CCCNC(=N)N)NC(=O)[C@H](Cc2ccc3ccccc3c2)NC(=O)[C@H](CO)NC1=O) | neither of the inhibitors had an effect | significant improvement in potency over linear peptides | significantly decreased | 1 | significantly decreased | 1 | – | – | – | – | – | –
2 | cFLSYR: cyclic peptide FLSYR, sPLA2-IIA inhibitor derived from residues 70-74 of human sPLA2-IIA (cyclic) | neither of the inhibitors had an effect | significant improvement in potency over linear peptides | significantly decreased | 1 | significantly decreased | 1 | returned to basal levels | completely blocked | – | – | – | –
3 | B1 | – | – | – | – | – | – | – | – | 1 | dose-dependently stimulated LNCaP cell growth | 62 | increase
